{"source": "patent US20260166182A1", "about": "“CYANINE-BASED FLUOROPHORES” (The General Hospital Corporation, priority 2022, published 2026)", "key": {"LLC and Raw264.7 cells": {"test_system": "LLC and Raw264.7 cells", "experiment": "In vitro inhibition study of SH1 cellular uptake", "assay_type": "cell-based", "conditions": "2 μM SH1, 15 min", "method": "In vitro inhibition study: LLC and Raw264.7 cells were seeded and incubated at a density of 20,000 cells/plate in a 24-well plate. […] Cells were then incubated with 2 μM of SH1 at 37° C. for 15 min. […] After washing twice with HBSS buffer, the cells were imaged using a Nikon TE2000 epifluorescence microscope (TE2000U; Nikon) equipped with a 75-W xenon light source, NIR-compatible optics, and a NIR-compatible 4×, 10×, and 20× Plan Fluor objective lens (Nikon, Melville, NY) with a customized filter set."}, "[1]": {"test_system": "lung carcinoma (LLC cell line)", "experiment": "NIR-II fluorescence imaging of subcutaneous LLC tumor-bearing C57BL/6 mice", "assay_type": "in vivo, mouse", "excerpt": "General NIR-II fluorescence imaging: A 640×512-pixel InGaAs camera (Ninox640, Raptor Photonics) and macro zoom lens (0-10×; Navitar Zoom 7000 with SWIR coating) along with 900, 1070, 1100, and 1200 nm long-pass (LP) filters from either Thorlab or Edmund optics were used to collect the NIR-II signal. InGaAs camera played a role as an open-air imaging system along with the support of the FLARE system. An 808 nm fiber-coupled diode laser ([…] at the sample) was used as an excitation source. Data acquisition was done using in-house developed software. […] Mice were imaged with intact skin using InGaAs camera. At least 3 mice were analyzed for each sample. Tumor-bearing mouse models: Animals were housed in an AAALAC-certified facility and were studied under the protocols approved by the MGH IACUC (2016N000136). Mice were maintained under anesthesia with isoflurane and oxygen during the experiment. To establish the various tumor-bearing mouse models including lung carcinoma, pancreatic ductal adenocarcinoma (PDAC), and triple negative breast adenocarcinoma, eight-week-old C57BL/6 mice (Taconic Farms, Germantown, NY) were subcutaneously injected with 2×10^5 LLC, Pan02, and E0771 cells suspended in DMEM/Matrigel (100 μL, 50 v/v %) in the flank region, respectively. Female C57BL/6 mice were used for the breast cancer (E0771) model, otherwise male mice were used. […] Statistical analysis: The fluorescence and background intensities of a region of interest over each tissue were quantified using customized imaging software and ImageJ v1.48 (National Institutes of Health, Bethesda, MD). The signal-to-background ratio (SBR) was calculated as SBR=fluorescence/background, where background was the fluorescence intensity of muscle. Data were reported as mean±s.e.m. with a minimum of three biological replicates. Student's t-test statistical analysis was performed to evaluate the significance of the experimental data. The differences among groups were determined using one-way ANOVA analysis to assess the statistical differences among more than two groups. […] The data was indicated with *p<0.05, ** p<0.01, *** p<0.001, and **** p<0.0001."}, "[2]": {"experiment": "Optical study in EtOH, DMSO, HEPES and PBS", "assay_type": "physicochemical", "method": "(§1) Optical Study, Photostability, Physicochemical Properties, and DFT Calculation: 1 mM stock solution in DMSO of the synthesized fluorophores was prepared before starting any spectral measurement. Optical properties for the synthesized fluorophores were measured in four different solvents (EtOH, DMSO, HEPES, and PBS). Absorbance spectra were measured in a Varian Cary 50 absorbance spectrophotometer (190-1100 nm). Fluorescence emission and photostability were measured and emission spectra were recorded on a Shimadzu RF-5301PC spectrofluorometer. Physicochemical properties (Log D, molecular mass, TPSA, H bond D/A, polarizability, molecular volume, and rotatable bonds) were predicted by ChemAxon (JChem plugin). Theoretical calculations of frontier molecular orbitals (FMOs) for the optimized structures of selected fluorophores were calculated based on DFT calculations at the B3LYP/6-311G(d,p) level.\nIn vivo success of a contrast agent can depend on the absorption and emission profiles, molar extinction coefficient, quantum yield, molecular brightness, physicochemical properties, and photochemical stability. Different types of polymethine bridges can have an impact on the structural geometry of the fluorophores and the absorption and emission profiles. Optical properties were measured in polar protic EtOH, polar aprotic DMSO, and two buffer solutions, phosphate-buffered saline (PBS, PH ˜7.4) and 4-(2-hydroxyethyl)-1-piperazine-ethanesulfonic acid (HEPES, PH ˜7.4). Organic solvents such as ethanol (EtOH) and dimethyl sulfoxide (DMSO) are often used in spectroscopic experiments to observe the absorption and emission maximum, whereas buffer solvents PBS and HEPES were used to mimic the biological environment, as these synthesized fluorophores are intended to be used in bioimaging. The absorbance profiles of these fluorophores were recorded at various concentrations (0.8, 1.6, 2.4, 3.2, 4.0 μM) and the absorbance values obtained were plotted against each of the concentrations. […] Fluorophores 18-21 refer to the labels in Example 4 and FIG. 7D.\nThe molar extinction coefficient is an intrinsic property of any fluorophore and can be important for high image resolution. […] These properties vary with the structure change and are difficult to predict beforehand. The optical properties of the synthesized fluorophores were measured in various media. All measurements were performed in 2 different organic solvents (EtOH and DMSO) and 2 different buffer (HEPES and PBS), and ICG was used as a reference (ΦICG=0.043)."}, "[3]": {"experiment": "Photostability under xenon lamp irradiation", "assay_type": "physicochemical", "conditions": "2 h", "method": "as §1\nIn consideration of theranostic (therapeutics and diagnostic) applications, NIR cyanine fluorophores are synthesized for fluorescence imaging, photodynamic therapy (PDT), photothermal therapy (PTT), optoacoustic imaging, and cancer immunotherapy. One of the approaches before using these fluorophores in those applications is to study their biodistribution and clearance pattern in vivo. […] The power density of 150 W is much higher than the required power for fluorescence imaging, considering that the time it takes for a fluorophore to clear from the background and accumulate in sufficient quantities in the targeted tissues is unknown. […] By considering this, an aliquot of the stock solution (1 mM in DMSO) was diluted in ethanol, and the fluorescence intensity was measured at the excitation wavelength same as their absorption maxima (nm). Photodegradation rates were measured every 20 min intervals for the selected fluorophores based on the % reduced fluorescence intensity starting from 100%. […] The data were collected in every 20 min intervals under continuous irradiation with a xenon lamp at 150 W for 2 h and presented based on the % reduced fluorescence intensity starting from 100%. […]"}, "[4]": {"experiment": "In vivo biodistribution study of NIR fluorophores in CD-1 mice", "parameters": "species or system mouse", "conditions": "25 nmol intravenous, 4 h post-injection", "method": "In Vivo Biodistribution Study of NIR Fluorophores: Under the supervision of the MGH IACUC, animals were housed in an AAALAC-certified facility and studied according to institutional protocol #2016N000136. In preparation for injection, CD-1 mice (25-30 g, 6 weeks, Charles River Laboratories, Wilmington, MA) were anesthetized with isoflurane and oxygen. A 10 mM stock solution of NIR fluorophores was prepared in DMSO, and 25 nmol of each molecule was diluted in BSA-containing saline (5 wt/v %) for intraoperative imaging. After 4 h post-injection, mice were imaged. For each experiment, camera exposure time and image normalization were held constant.\nQuantitative Analysis: The fluorescence and background intensity of a region of interest (ROI) over each tissue was quantified using ImageJ software (NIH, Bethesda, MD) version 1.45q. The signal-to-background ratio (SBR) was calculated as SBR=fluorescence/background, where background is the signal intensity of neighboring tissues such as muscle. All NIR fluorescence images for a particular fluorophore were normalized identically for all conditions of an experiment."}}, "note": "Entries after “also recorded” stand apart in the source; their conditions may differ."}
{"smiles": "CN(C)C(=O)CCSC(SCCC(=O)O)c1cccc(/C=C/c2ccc3ccc(Cl)cc3n2)c1", "note": "(stereo not drawn) [MK-571]", "values": [{"measurement": "effect of inhibitor pretreatment on SH1 cellular uptake", "setting": "LLC and Raw264.7 cells", "value": "Neither bromosulphophthalein, cyclosporin A (both OATP inhibitors), D22 (OCT inhibitor), nor MK-571 (ABC transporter inhibitor) significantly inhibited SH1 uptake"}]}
{"smiles": "CCCCN1/C(=C/C=C/C=C/C=C/C2=[N+](CCCC)c3ccc(Cl)cc3C2(C)C)C(C)(C)c2cc(Cl)ccc21", "note": "[SH2, 1-butyl-2-((1E,3E,5E)-7-((E)-1-butyl-5-chloro-3,3-dimethylindolin-2-ylidene)hepta-1,3,5-trien-1-yl)-5-chloro-3,3-dimethyl-3H-indol-1-ium iodide]", "values": [{"measurement": "NIR-II signal intensity of abdominal and dissected tumor image", "setting": "[1]; NIR-II region", "value": "low signal intensity in NIR-II region"}]}
{"smiles": "O=C1OC(c2ccc(O)c(S(=O)(=O)O)c2)(c2ccc(O)c(S(=O)(=O)O)c2)c2c(Br)c(Br)c(Br)c(Br)c21", "note": "[bromosulphophthalein, bromsulphthalein]", "values": [{"measurement": "effect of inhibitor pretreatment on SH1 cellular uptake", "setting": "LLC and Raw264.7 cells", "value": "Neither bromosulphophthalein, cyclosporin A (both OATP inhibitors), D22 (OCT inhibitor), nor MK-571 (ABC transporter inhibitor) significantly inhibited SH1 uptake"}]}
{"smiles": "CC1(C)C(/C=C/C2=C(Cl)C(=C/C=C3/N(CCCc4ccccc4)c4ccc(Cl)cc4C3(C)C)/CCC2)=[N+](CCCc2ccccc2)c2ccc(Cl)cc21.[Br-]", "note": "[fluorophore 19, 5-Chloro-2-((E)-2-((E)-2-chloro-3-(2-((E)-5-chloro-3,3-dimethyl-1-(3-phenylpropyl)indolin-2-ylidene)ethylidene)cyclohex-1-en-1-yl)vinyl)-3,3-dimethyl-1-(3-phenylpropyl)-3H-indol-1-ium Bromide]", "values": [{"measurement": "emission wavelength", "setting": "[2]; DMSO", "value": 817, "unit": "nm"}, {"measurement": "photodegradation (% reduced fluorescence intensity)", "setting": "[3]", "value": "7-12%"}]}
{"smiles": "CCN1/C(=C/c2ccc3ccccc3[n+]2CC)C=Cc2ccccc21.[I-]", "note": "[D22, 1,1′-Diethyl-2,2′-cyanine iodide]", "values": [{"measurement": "effect of inhibitor pretreatment on SH1 cellular uptake", "setting": "LLC and Raw264.7 cells", "value": "Neither bromosulphophthalein, cyclosporin A (both OATP inhibitors), D22 (OCT inhibitor), nor MK-571 (ABC transporter inhibitor) significantly inhibited SH1 uptake"}]}
{"smiles": "O=C(N/N=C/c1cc(O)c(O)cc1O)c1cc2ccccc2cc1O", "note": "[dingo 4a]", "values": [{"measurement": "effect of inhibitor pretreatment on SH1 cellular uptake", "setting": "LLC and Raw264.7 cells", "value": "significantly inhibited the internalization"}]}
{"smiles": "CCCCN1/C(=C/C=C2\\CCCC(/C=C/C3=[N+](CCCC)c4ccccc4C3(C)C)=C2Cl)C(C)(C)c2ccccc21", "note": "[SH21, 1-butyl-2-((E)-2-((E)-3-(2-((E)-1-butyl-3,3-dimethylindolin-2-ylidene)ethylidene)-2-chlorocyclohex-1-en-1-yl)vinyl)-3,3-dimethyl-3H-indol-1-ium iodide]", "values": [{"measurement": "circulation in the blood stream", "setting": "[1]; 48 h post-injection", "value": "circulating in the blood stream at 48 h post injection"}, {"measurement": "quantum yield", "setting": "[2]; EtOH", "value": 0.33}, {"measurement": "quantum yield", "setting": "[2]; PBS", "value": 0.01}, {"measurement": "molecular brightness", "setting": "[2]; highest observed", "value": "79,664 cm^−1 M^−1"}, {"measurement": "tissue/organ signals", "setting": "[4]", "value": "high background signals; also recorded: higher background tissue uptake"}]}
{"smiles": "CCCCN1/C(=C/C=C2\\CCCC(/C=C/C3=[N+](CCCC)c4ccc(Br)cc4C3(C)C)=C2Cl)C(C)(C)c2cc(Br)ccc21.[I-]", "note": "[fluorophore 20, 5-Bromo-2-((E)-2-((E)-3-(2-((E)-5-bromo-1-butyl-3,3-dimethylindolin-2-ylidene)ethylidene)-2-chlorocyclohex-1-en-1-yl)vinyl)-1-butyl-3,3-dimethyl-3H-indol-1-ium Iodide]", "values": [{"measurement": "quantum yield", "setting": "[2]; PBS", "value": 0.01}, {"measurement": "tissue/organ signals", "setting": "[4]", "value": "high signals in the primary and secondary lymphoid tissues"}]}
{"smiles": "O=C1NC(=NS(=O)(=O)c2cccc3ccccc23)S/C1=C\\c1ccc(Br)cc1", "note": "[Pitstop 2]", "values": [{"measurement": "effect of inhibitor pretreatment on SH1 cellular uptake", "setting": "LLC and Raw264.7 cells", "value": "did not result in any appreciable change in cellular uptake"}]}
